Test results published in ChEMBL document CHEMBL5291721, “A preclinical secondary pharmacology resource illuminates target-adverse drug reaction associations of marketed drugs” (Nat Commun, 2023).

Tests used:
[1] = biological target: T1, Androgen receptor (Rattus norvegicus, UniProt P15207); format: functional
T1 sequence (P15207 whole entry): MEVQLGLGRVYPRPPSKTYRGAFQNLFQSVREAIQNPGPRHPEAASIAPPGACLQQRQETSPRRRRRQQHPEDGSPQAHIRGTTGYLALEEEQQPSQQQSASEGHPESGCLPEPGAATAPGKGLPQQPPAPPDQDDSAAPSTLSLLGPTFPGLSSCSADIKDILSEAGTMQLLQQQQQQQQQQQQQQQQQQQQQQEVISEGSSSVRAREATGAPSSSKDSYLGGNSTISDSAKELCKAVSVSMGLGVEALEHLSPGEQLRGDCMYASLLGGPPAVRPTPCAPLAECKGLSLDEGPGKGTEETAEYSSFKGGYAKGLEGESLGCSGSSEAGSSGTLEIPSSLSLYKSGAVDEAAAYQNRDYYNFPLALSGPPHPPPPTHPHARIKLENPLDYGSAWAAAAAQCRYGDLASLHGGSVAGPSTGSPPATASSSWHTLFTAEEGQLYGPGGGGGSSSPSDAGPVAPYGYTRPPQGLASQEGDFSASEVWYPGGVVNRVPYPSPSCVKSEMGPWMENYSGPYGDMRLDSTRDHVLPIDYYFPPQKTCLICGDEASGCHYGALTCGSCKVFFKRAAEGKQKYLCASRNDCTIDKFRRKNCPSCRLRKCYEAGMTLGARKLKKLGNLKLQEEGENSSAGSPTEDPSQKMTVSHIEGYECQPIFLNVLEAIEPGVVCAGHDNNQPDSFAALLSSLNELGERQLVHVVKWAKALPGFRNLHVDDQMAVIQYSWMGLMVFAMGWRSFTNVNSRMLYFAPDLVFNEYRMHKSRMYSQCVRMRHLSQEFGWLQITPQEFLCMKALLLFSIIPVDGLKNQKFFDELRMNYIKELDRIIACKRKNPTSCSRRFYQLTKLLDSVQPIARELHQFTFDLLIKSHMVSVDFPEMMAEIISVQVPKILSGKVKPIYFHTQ

[2] = biological target: Beta-1 adrenergic receptor (Homo sapiens, UniProt P08588); format: functional, cell-based
Beta-1 adrenergic receptor, sequence (P08588 whole entry): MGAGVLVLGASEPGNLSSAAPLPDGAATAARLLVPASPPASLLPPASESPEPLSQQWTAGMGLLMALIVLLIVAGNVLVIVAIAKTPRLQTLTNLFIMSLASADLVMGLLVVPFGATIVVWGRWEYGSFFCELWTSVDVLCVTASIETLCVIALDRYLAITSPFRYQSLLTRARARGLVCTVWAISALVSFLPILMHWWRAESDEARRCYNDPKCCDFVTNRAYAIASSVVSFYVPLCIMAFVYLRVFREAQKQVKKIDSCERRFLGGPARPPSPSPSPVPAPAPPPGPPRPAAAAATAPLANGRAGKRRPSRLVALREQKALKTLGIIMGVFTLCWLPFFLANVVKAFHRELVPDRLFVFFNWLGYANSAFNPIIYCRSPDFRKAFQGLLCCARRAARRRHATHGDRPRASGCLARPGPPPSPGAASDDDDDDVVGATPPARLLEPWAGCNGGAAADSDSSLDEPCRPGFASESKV

[3] = biological target: Voltage-dependent L-type calcium channel subunit alpha-1C (Homo sapiens, UniProt Q13936); format: functional, cell-based
Voltage-dependent L-type calcium channel subunit alpha-1C, sequence (Q13936 whole entry): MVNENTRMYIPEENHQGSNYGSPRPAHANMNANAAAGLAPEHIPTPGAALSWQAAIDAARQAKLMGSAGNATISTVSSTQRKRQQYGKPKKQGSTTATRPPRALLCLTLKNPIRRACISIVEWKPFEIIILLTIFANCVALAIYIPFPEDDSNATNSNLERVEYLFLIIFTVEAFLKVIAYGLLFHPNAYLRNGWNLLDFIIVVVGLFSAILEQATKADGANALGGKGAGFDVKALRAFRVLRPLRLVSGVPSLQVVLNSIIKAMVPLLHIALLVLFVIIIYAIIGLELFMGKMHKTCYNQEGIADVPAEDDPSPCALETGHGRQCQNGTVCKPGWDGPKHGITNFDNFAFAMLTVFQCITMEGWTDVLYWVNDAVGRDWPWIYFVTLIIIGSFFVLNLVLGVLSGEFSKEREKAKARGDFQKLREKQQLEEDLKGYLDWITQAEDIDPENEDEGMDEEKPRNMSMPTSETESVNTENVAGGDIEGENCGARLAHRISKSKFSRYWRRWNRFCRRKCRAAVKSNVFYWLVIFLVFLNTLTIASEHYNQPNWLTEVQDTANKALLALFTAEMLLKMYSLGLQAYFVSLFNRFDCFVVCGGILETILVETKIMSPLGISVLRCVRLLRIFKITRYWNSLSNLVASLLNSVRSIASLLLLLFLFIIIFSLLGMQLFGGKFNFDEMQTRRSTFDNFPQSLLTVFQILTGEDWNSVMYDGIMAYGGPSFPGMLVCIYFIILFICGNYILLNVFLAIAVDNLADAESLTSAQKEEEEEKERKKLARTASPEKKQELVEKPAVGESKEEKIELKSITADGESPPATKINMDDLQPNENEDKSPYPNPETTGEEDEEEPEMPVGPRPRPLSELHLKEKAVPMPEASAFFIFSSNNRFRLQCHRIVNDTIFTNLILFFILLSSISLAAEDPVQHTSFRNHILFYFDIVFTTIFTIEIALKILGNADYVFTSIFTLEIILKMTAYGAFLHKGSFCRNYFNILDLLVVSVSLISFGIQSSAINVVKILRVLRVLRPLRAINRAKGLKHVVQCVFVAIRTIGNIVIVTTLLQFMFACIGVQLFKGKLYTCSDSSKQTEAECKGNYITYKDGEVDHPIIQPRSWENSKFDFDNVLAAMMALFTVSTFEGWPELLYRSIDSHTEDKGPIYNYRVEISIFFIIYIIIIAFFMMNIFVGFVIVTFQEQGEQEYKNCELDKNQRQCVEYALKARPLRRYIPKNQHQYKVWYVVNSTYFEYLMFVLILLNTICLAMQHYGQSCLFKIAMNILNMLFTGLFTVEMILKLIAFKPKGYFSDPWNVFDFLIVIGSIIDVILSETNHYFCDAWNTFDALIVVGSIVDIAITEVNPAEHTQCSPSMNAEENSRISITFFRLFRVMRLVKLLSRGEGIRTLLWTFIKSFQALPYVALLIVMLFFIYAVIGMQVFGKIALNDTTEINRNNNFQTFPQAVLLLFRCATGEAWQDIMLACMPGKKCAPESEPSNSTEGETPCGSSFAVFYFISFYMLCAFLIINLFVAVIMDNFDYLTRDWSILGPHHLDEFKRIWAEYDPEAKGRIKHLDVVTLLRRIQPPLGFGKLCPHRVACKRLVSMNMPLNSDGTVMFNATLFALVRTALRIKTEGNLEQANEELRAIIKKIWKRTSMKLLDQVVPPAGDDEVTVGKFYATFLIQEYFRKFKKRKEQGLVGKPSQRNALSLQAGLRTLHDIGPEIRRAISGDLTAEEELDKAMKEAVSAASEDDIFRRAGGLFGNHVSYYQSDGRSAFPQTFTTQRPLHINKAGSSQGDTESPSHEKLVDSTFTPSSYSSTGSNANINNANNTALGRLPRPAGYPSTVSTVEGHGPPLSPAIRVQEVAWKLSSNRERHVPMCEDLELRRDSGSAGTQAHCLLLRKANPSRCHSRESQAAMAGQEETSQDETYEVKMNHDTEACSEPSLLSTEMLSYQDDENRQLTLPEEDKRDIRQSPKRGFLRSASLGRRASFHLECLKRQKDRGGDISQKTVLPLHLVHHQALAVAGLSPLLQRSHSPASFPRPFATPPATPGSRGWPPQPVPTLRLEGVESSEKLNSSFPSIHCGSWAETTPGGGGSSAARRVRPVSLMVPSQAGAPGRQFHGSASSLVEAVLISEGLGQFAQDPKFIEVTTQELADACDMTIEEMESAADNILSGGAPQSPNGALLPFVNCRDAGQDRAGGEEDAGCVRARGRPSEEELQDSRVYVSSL

[4] = biological target: T2, Muscarinic acetylcholine receptor M2 (Homo sapiens, UniProt P08172)
T2 sequence (P08172 whole entry): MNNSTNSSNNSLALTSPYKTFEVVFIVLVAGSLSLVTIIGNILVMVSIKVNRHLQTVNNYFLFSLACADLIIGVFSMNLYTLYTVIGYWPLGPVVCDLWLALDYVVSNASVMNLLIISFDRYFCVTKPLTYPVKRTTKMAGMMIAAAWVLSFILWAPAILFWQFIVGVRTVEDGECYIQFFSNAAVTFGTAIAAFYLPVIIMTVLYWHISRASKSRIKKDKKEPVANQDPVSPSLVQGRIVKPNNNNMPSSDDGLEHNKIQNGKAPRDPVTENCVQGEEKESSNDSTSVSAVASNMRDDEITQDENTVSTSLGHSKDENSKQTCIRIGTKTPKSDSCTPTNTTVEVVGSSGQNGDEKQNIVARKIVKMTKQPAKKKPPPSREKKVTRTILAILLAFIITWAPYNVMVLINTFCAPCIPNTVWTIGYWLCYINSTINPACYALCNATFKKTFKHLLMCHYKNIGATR

[5] = biological target: Gamma-aminobutyric acid type B receptor subunit 1 (Homo sapiens, UniProt Q9UBS5)
Gamma-aminobutyric acid type B receptor subunit 1, sequence (Q9UBS5 whole entry): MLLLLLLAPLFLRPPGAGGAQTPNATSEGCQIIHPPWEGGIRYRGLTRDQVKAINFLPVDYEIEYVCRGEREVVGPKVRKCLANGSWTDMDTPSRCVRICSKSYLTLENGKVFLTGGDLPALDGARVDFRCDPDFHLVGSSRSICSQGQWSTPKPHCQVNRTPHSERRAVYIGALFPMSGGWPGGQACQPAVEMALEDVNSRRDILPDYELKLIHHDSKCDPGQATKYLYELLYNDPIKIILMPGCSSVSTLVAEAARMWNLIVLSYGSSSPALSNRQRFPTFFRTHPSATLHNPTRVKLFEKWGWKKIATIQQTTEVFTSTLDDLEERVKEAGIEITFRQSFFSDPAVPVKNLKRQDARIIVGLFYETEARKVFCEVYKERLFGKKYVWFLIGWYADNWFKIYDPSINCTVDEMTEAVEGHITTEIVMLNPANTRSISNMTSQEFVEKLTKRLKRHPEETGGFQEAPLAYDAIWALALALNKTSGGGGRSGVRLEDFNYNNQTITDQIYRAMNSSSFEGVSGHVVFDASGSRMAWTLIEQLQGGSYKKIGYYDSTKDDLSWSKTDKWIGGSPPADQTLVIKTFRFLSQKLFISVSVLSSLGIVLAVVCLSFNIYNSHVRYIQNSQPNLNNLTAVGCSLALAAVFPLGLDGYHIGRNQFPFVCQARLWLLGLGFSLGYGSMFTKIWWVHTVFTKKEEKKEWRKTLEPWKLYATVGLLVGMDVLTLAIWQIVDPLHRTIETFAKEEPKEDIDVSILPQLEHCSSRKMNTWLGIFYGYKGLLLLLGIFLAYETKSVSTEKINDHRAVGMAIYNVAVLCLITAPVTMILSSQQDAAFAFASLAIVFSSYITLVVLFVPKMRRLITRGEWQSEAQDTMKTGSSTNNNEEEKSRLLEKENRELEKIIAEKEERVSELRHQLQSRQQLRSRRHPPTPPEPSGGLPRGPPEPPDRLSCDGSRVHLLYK

[6] = biological target: Cannabinoid receptor 1 (Homo sapiens, UniProt P21554); format: functional
Cannabinoid receptor 1, sequence (P21554 whole entry): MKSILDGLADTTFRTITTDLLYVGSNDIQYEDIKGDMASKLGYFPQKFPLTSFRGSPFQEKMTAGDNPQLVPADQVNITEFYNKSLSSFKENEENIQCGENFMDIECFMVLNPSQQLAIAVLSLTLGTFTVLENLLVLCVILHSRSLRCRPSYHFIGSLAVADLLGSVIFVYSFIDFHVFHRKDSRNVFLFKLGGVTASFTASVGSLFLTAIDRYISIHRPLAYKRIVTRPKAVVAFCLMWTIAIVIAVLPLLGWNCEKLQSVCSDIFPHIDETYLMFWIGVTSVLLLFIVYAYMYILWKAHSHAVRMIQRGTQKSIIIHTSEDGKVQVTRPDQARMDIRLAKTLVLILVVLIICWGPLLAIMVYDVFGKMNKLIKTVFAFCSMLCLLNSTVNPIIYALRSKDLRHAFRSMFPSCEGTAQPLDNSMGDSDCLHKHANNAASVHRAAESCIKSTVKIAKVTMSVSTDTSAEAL

[7] = biological target: T3, Muscarinic acetylcholine receptor M5 (Homo sapiens, UniProt P08912)
T3 sequence (P08912 whole entry): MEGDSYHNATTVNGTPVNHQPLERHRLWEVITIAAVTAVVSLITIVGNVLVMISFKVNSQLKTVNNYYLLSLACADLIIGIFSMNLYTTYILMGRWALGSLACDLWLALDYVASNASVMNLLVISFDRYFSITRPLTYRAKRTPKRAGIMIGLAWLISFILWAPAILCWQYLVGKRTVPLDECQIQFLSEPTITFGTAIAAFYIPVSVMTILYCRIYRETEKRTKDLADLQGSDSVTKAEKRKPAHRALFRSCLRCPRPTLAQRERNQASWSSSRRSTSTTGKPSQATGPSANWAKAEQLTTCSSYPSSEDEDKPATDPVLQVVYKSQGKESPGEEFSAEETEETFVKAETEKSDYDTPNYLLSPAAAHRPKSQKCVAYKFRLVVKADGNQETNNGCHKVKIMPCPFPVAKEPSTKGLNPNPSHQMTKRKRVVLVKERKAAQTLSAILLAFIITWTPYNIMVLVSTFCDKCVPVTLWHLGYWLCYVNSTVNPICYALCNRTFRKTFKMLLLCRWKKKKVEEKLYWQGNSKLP

[8] = biological target: D(1A) dopamine receptor (Homo sapiens, UniProt P21728)
D(1A) dopamine receptor, sequence (P21728 whole entry): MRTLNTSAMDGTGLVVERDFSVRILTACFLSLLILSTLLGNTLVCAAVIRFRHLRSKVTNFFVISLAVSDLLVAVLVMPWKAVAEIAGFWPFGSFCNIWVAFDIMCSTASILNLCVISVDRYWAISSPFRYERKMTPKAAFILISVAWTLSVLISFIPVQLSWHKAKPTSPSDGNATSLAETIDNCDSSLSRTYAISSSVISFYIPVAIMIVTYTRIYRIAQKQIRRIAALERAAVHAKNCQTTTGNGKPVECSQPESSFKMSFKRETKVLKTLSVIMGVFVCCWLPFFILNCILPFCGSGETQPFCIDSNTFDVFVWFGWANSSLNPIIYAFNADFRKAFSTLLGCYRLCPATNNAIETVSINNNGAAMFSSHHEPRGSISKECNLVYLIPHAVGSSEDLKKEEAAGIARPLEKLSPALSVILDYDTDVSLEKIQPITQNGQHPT

[9] = biological target: T4, Type-2 angiotensin II receptor (Homo sapiens, UniProt P50052); format: functional
T4 sequence (P50052 whole entry): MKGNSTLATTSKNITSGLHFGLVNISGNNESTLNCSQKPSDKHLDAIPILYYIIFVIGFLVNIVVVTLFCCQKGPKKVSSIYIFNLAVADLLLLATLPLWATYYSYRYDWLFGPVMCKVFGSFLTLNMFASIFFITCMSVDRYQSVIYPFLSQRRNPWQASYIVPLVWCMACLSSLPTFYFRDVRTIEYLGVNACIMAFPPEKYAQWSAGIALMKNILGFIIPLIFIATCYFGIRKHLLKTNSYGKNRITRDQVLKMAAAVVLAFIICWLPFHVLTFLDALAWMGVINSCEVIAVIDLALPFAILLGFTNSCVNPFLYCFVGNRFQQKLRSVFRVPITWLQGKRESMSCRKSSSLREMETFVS

[10] = biological target: T1, Androgen receptor
Also: assay procedure not described here.

CC(C)(Oc1ccc(Cl)cc1)C(=O)OCCOC(=O)c1cccnc1 [ETOFIBRATE]
AC50 [1]: > 30 µM | AC50 [2]: > 30 µM

C[C@@H]1CN(c2c(F)c(N)c3c(=O)c(C(=O)O)cn(C4CC4)c3c2F)C[C@H](C)N1 [SPARFLOXACIN]
AC50 [3]: > 50 µM

COc1cccc2c1C(=O)c1c(O)c3c(c(O)c1C2=O)C[C@@](O)(C(=O)CO)C[C@@H]3O[C@H]1C[C@H](N)[C@H](O)[C@H](C)O1 [DOXORUBICIN]
AC50 [3]: > 50 µM

N=C(N)NC(=O)c1nc(Cl)c(N)nc1N [AMILORIDE]
AC50 [4]: > 10 µM | AC50 [5]: > 10 µM | AC50 [6]: > 10 µM | AC50 [7]: > 10 µM | AC50 [8]: > 10 µM | AC50 [9]: > 100 µM

CC(C)Cc1ccc(C(C)C(=O)OCc2ccccn2)cc1 (stereo unspecified) [IBUPROFEN PICONOL]
AC50 [9]: > 100 µM

CN(C)[C@@H]1C(O)=C(C(=O)NCN2CCCC2)C(=O)[C@@]2(O)C(O)=C3C(=O)c4c(O)cccc4[C@@](C)(O)[C@H]3C[C@@H]12 [ROLITETRACYCLINE]
AC50 [10]: 4.35 µM

C[C@]12C=CC(=O)C=C1CC[C@@H]1[C@@H]2[C@@H](O)C[C@@]2(C)[C@H]1CC[C@]2(O)C(=O)CO [PREDNISOLONE]
AC50 [4]: > 10 µM

C[C@]12CCC(=O)C=C1C=C[C@@H]1[C@@H]2CC[C@@]2(C)[C@H]1CC[C@@]21CCC(=O)O1 [CANRENONE]
AC50 [2]: > 30 µM

C[C@]12C=CC(=O)C=C1C(Cl)=C[C@@H]1[C@@H]2[C@@H](O)C[C@@]2(C)[C@H]1CC[C@]2(O)C(=O)CO [CLOPREDNOL]
AC50 [1]: > 30 µM

CCC(=O)c1ccc2c(c1)N(CC(C)N(C)C)c1ccccc1S2 (stereo unspecified) [PROPIOMAZINE]
AC50 [4]: 0.265 µM | AC50 [10]: > 30 µM

Cc1ccc(O)c([C@H](CCN(C(C)C)C(C)C)c2ccccc2)c1 [TOLTERODINE]
AC50 [5]: > 10 µM | AC50 [6]: > 10 µM | AC50 [7]: 0.0065 µM | AC50 [8]: > 10 µM
